Converted amounts (≈) assume the structure as drawn. Where a SMILES comes first, the peptide text is derived from it.
Legend:
[1] = tested on: P. aeruginosa (ATCC CRM 9027) biofilm; format: cell-based, Pseudomonas aeruginosa; conditions: ATCC CRM 9027, 24 h
Experimental: (§1) The anti-biofilm activities of the peptides against S. aureus (ATCC 6538), MRSA (NCTC 12493), E. faecalis (NCTC 12493), E. coli (ATCC CRM 8739), K. pneumoniae (ATCC 43816), and P. aeruginosa (ATCC CRM 9027) were evaluated.
(§2) The bacteria were inoculated in a different medium (Gram-positive bacteria were in TSB and Gram-negative bacteria were in LB) overnight, and the subculture was conducted in the same medium. When the bacteria reached a specific density, 100 µL of the dilution was added to each well of the 96-well microplate. Then 1 µL of peptide at a series of concentrations, the same concentration in the antimicrobial assay, were added into the well together with the bacteria. The plates were put into a moist shaking incubator with a speed of 200 rpm, and the temperature was set at 37 ℃. After a 24-h incubation, the liquid in the wells was aspirated, and each was washed twice by 100 µL PBS. One hundred µL of methanol were added into each well to stabilise the biofilm. After air-drying, 100 µL crystal violet was used to dye the biofilm, and they were dissolved in the 100 µL glacial acidic acid after drying. The solutions were transferred to a new microplate, and the absorbance of each well was tested by a microplate reader (EL808, Biolise BioTek Winooski, Minneapolis, MN, USA) at 595 nm wavelength. MBIC was the minimum concentration of the peptide showing no biofilm formation.
(§3) The bacteria were inoculated in a different medium (Gram-positive bacteria were in TSB and Gram-negative bacteria were in LB) overnight, and the subculture was conducted in the same medium. When the bacteria reached a specific density, 100 µL of the dilution was added to each well of the 96-well microplates. The plates were put into a moist shaking incubator with a speed of 200 rpm and the temperature was 37 ℃. After a 24 h incubation, the liquid in the wells was aspirated and they were washed twice by 100 µL PBS of each well. The peptides with the same concentrations were diluted in the corresponding medium and 100 µL were added into each well. After a 24-h incubation, the liquid in the wells was aspirated and they were washed twice by 100 µL PBS. One hundred µL of methanol were added into the wells to stabilise the biofilms. After being air-dried, 100 µL crystal violet was used to dye the biofilm, and they were dissolved in the 100 µL glacial acidic acid after drying. The solutions were transferred to a new microplate, and the absorbance of each well was tested by a microplate reader (EL808, Biolise BioTek Winooski, Minneapolis, USA) at 595 nm wavelength.

[2] = tested on: K. pneumoniae (ATCC 43816) biofilm; format: cell-based, Klebsiella pneumoniae; conditions: ATCC 43816, 24 h
Experimental: as §1, §2, §3

MRSA (NCTC 12493) = format: cell-based, Methicillin-resistant Staphylococcus aureus
Experimental: (§4) The method of antimicrobial assay is based on the Methods for Dilution Antimicrobial Susceptibility Tests for Bacteria that Grow Aerobically from the Clinical and Laboratory Standards Institute (CLSI).The antimicrobial activities of peptides were evaluated against Gram-positive bacteria S. aureus (ATCC 6538), MRSA (NCTC 12493), E. faecalis (NCTC 12493), Gram-negative bacteria E. coli (ATCC CRM 8739), K. pneumoniae (ATCC 43816), P. aeruginosa (ATCC CRM 9027), yeast C. albicans (ATCC CRM 10231) and clinical isolates MRSA (B042 V2E1 A), E. coli (ATCC BAA-2340), K. pneumoniae (ATCC BAA-1705), P. aeruginosa (B004 V2S2 B).
(§5) At the first stage of the assay, 20 μL bacteria were cultured in 100 mL Mueller Hinton Broth (MHB) or Yeast Extract–Peptone–Dextrose broth (YPD-B), respectively, and was incubated overnight. Then, microorganisms were subcultured in 20 mL fresh MHB or YPD-B to achieve cultures in the logarithmic phase (1 × 10^8 CFU/mL), which can be verified by optical density (OD) (The OD of Gram-positive bacteria is 0.23, OD of Gram-negative bacteria is 0.4, and OD of yeast is 0.15), and viable cell counts. Then, the medium was used to dilute the cultures to specific cell densities (Gram-negative and Gram-positive bacteria: 5 × 10^5 CFU/mL; yeast: 1 × 10^6 CFU/mL), which were the final concentrations of bacterial suspensions used in the assay. The peptides were dissolved in DMSO to reach a final concentration of 512 µM. A series of two-fold dilutions ranging from 512 µM to 1 µM were dosed in the 96-well plates.
(§6) Antimicrobial assays were conducted in 96-well plates, which were divided into five groups, including a negative control group (PBS), a positive control group (20 μg/mL norfloxacin for bacteria and 10 μg/mL amphotericin B for yeast), vehicle control (1% DMSO), blank control (MHB or YPD-B), and a peptide group. Each microorganism had five repetitions, and each well contained 1 µL corresponding solution and 99 µL culture. After incubation at 37 °C overnight, the absorbance of each well was tested by a microplate reader (EL808, Biolise BioTek Winooski, Minneapolis, USA) under a 550 nm wavelength. The MIC is the lowest concentration at which no bacterial growth can be observed.
(§7) The next day, 10 µL of every clear well was taken out to be cultured on a Mueller Hinton Agar (MHA) plate and incubated at 37 °C for 16–20 h. The MBC is the lowest concentration without any bacterial colonies, which means at this concentration, the peptide reduces the viability of the pathogen by more than 99.9%.

MRSA (B042 V2E1 A) = format: cell-based, Methicillin-resistant Staphylococcus aureus
Experimental: as §4, §5, §6, §7

[3] = tested on: E. coli (ATCC CRM 8739) biofilm; format: cell-based, Escherichia coli; conditions: ATCC CRM 8739, 24 h
Experimental: as §1, §2, §3

[4] = tested on: P. aeruginosa (B004 V2S2 B); format: cell-based, Pseudomonas aeruginosa
Experimental: as §4, §5, §6, §7

[5] = tested on: P. aeruginosa (ATCC CRM 9027); format: cell-based, Pseudomonas aeruginosa
Experimental: as §4, §5, §6, §7

E. coli (ATCC CRM 8739) = format: cell-based, Escherichia coli
Experimental: as §4, §5, §6, §7

[6] = tested on: K. pneumoniae (ATCC BAA-1705); format: cell-based, Klebsiella pneumoniae
Experimental: as §4, §5, §6, §7

[7] = tested on: K. pneumoniae (ATCC 43816); format: cell-based, Klebsiella pneumoniae
Experimental: as §4, §5, §6, §7

Row | Structure (SMILES) | MBEC [1] | MBIC [1] | MBEC [2] | MBIC [2] | MBC (MRSA (NCTC 12493)) | MIC (MRSA (NCTC 12493)) | MBC (MRSA (B042 V2E1 A)) | MIC (MRSA (B042 V2E1 A)) | MBEC [3] | MBIC [3] | MBC [4] | MIC [4] | MBC [5] | MIC [5] | MBC (E. coli (ATCC CRM 8739)) | MIC (E. coli (ATCC CRM 8739)) | MBC [6] | MIC [6] | MBC [7] | MIC [7]
1 | CC[C@H](C)[C@H](NC(=O)[C@@H](NC(=O)CN)C(C)C)C(=O)N[C@H](C(=O)N[C@@H](CCCCN)C(=O)N[C@H](C(=O)N[C@@H](CC(C)C)C(N)=O)[C@@H](C)O)[C@@H](C)CC [Peptide 7-tB2U-K] (H-GVIIKTL-NH2) | >512 µM | >512 µM | >512 µM | >512 µM | > 512 µM | 256 µM (≈ 190 µg/mL) | >512 µM | >512 µM | >512 µM | >512 µM | >512 µM | >512 µM | >512 µM | >512 µM | >512 µM | >512 µM | >512 µM | >512 µM | >512 µM | >512 µM
2 | CC[C@H](C)[C@H](NC(=O)[C@@H](NC(=O)CN)C(C)C)C(=O)N[C@H](C(=O)N[C@@H](CCCCN)C(=O)N[C@H](C(=O)N[C@@H](CC(C)C)C(=O)N[C@@H](CCCCN)C(=O)NCC(=O)N[C@@H](C)C(=O)N[C@@H](C)C(=O)N[C@@H](CCCCN)C(=O)N[C@H](C(=O)N[C@H](C(N)=O)C(C)C)[C@@H](C)O)[C@@H](C)O)[C@@H](C)CC [Peptide 14-tB2U-K] (H-GVIIKTLKGAAKTV-NH2) | >512 µM | >512 µM | >512 µM | >512 µM | >512 µM | >512 µM | >512 µM | >512 µM | >512 µM | >512 µM | >512 µM | >512 µM | >512 µM | >512 µM | >512 µM | >512 µM | >512 µM | >512 µM | >512 µM | >512 µM
3 | CC[C@H](C)[C@H](NC(=O)[C@@H](NC(=O)CN)C(C)C)C(=O)N[C@H](C(=O)N[C@@H](CC(=O)O)C(=O)N[C@H](C(=O)N[C@@H](CC(C)C)C(=O)N[C@@H](CCCCN)C(=O)NCC(=O)N[C@@H](C)C(=O)N[C@@H](C)C(=O)N[C@@H](CCCCN)C(=O)N[C@H](C(=O)N[C@H](C(=O)N[C@@H](C)C(=O)N[C@@H](C)C(=O)N[C@@H](CCC(=O)O)C(=O)N[C@@H](CC(C)C)C(=O)N[C@@H](CC(C)C)C(N)=O)C(C)C)[C@@H](C)O)[C@@H](C)O)[C@@H](C)CC [tB2U-α] (H-GVIIDTLKGAAKTVAAELL-NH2) | >512 µM | >512 µM | >512 µM | >512 µM | >512 µM | >512 µM | >512 µM | >512 µM | >512 µM | >512 µM | >512 µM | >512 µM | >512 µM | >512 µM | >512 µM | >512 µM | >512 µM | >512 µM | >512 µM | >512 µM

Source: PMC8388802, “Study on the Structure-Activity Relationship of an Antimicrobial Peptide, Brevinin-2GUb, from the Skin Secretion of Hylarana guentheri” (Antibiotics, 2021)
